Test: Effect of temperature (and pH) on the stability of the solution (purity)
Format: physicochemical
Conditions: 7% solution in water

CCN(CC)CCOC(=O)Cc1c(C)n(C(=O)c2ccc(Cl)cc2)c2ccc(OC)cc12.Cl
Purity(%) at day 0 (pH 1.0, day 0): 98.1 ± 0.3% | Purity(%) at day 21 (5° C.) (pH 1.0, day 21, 5° C.): 92.3 ± 0.3% | Purity(%) at day 21 (25° C.) (pH 1.0, day 21, 25° C.): 69.0 ± 0.3% | Purity(%) at day 21 (40° C.) (pH 1.0, day 21, 40° C.): 15.3 ± 0.3% | Purity (%) at day 21 (60° C.) (pH 1.0, day 21, 60° C.): 0% | Purity(%) at day 0 (pH 2.0, day 0): 98.3 ± 0.4% | Purity(%) at day 21 (5° C.) (pH 2.0, day 21, 5° C.): 95.9 ± 0.3% | Purity(%) at day 21 (25° C.) (pH 2.0, day 21, 25° C.): 83.1 ± 0.3% | Purity(%) at day 21 (40° C.) (pH 2.0, day 21, 40° C.): 27.5 ± 0.3% | Purity (%) at day 21 (60° C.) (pH 2.0, day 21, 60° C.): 0% | Purity(%) at day 0 (pH 3.0, day 0): 98.5 ± 0.2% | Purity(%) at day 21 (5° C.) (pH 3.0, day 21, 5° C.): 97.3 ± 0.3% | Purity(%) at day 21 (25° C.) (pH 3.0, day 21, 25° C.): 94.5 ± 0.2% | Purity(%) at day 21 (40° C.) (pH 3.0, day 21, 40° C.): 49.3 ± 0.3% | Purity (%) at day 21 (60° C.) (pH 3.0, day 21, 60° C.): 0% | Purity(%) at day 0 (pH 3.7, day 0): 98.5 ± 0.2% | Purity(%) at day 21 (5° C.) (pH 3.7, day 21, 5° C.): 97.7 ± 0.2% | Purity(%) at day 21 (25° C.) (pH 3.7, day 21, 25° C.): 97.3 ± 0.3% | Purity(%) at day 21 (40° C.) (pH 3.7, day 21, 40° C.): 57.9 ± 0.2% | Purity (%) at day 21 (60° C.) (pH 3.7, day 21, 60° C.): 16.3 ± 0.5% | Purity(%) at day 0 (pH 4.0, day 0): 98.7 ± 0.1% | Purity(%) at day 21 (5° C.) (pH 4.0, day 21, 5° C.): 98.1 ± 0.3% | Purity(%) at day 21 (25° C.) (pH 4.0, day 21, 25° C.): 97.5 ± 0.2% | Purity(%) at day 21 (40° C.) (pH 4.0, day 21, 40° C.): 68.7 ± 0.3% | Purity (%) at day 21 (60° C.) (pH 4.0, day 21, 60° C.): 19.6 ± 0.3% | Purity(%) at day 0 (pH 4.3, day 0): 98.8 ± 0.2% | Purity(%) at day 21 (5° C.) (pH 4.3, day 21, 5° C.): 98.3 ± 0.3% | Purity(%) at day 21 (25° C.) (pH 4.3, day 21, 25° C.): 97.3 ± 0.3% | Purity(%) at day 21 (40° C.) (pH 4.3, day 21, 40° C.): 70.1 ± 0.3% | Purity (%) at day 21 (60° C.) (pH 4.3, day 21, 60° C.): 17.7 ± 0.2% | Purity(%) at day 0 (pH 4.6, day 0): 98.7 ± 0.1% | Purity(%) at day 21 (5° C.) (pH 4.6, day 21, 5° C.): 98.2 ± 0.2% | Purity(%) at day 21 (25° C.) (pH 4.6, day 21, 25° C.): 96.4 ± 0.2% | Purity(%) at day 21 (40° C.) (pH 4.6, day 21, 40° C.): 56.3 ± 0.2% | Purity (%) at day 21 (60° C.) (pH 4.6, day 21, 60° C.): 15.3 ± 0.3% | Purity(%) at day 0 (pH 5.0, day 0): 98.6 ± 0.3% | Purity(%) at day 21 (5° C.) (pH 5.0, day 21, 5° C.): 97.0 ± 0.2% | Purity(%) at day 21 (25° C.) (pH 5.0, day 21, 25° C.): 94.1 ± 0.3% | Purity(%) at day 21 (40° C.) (pH 5.0, day 21, 40° C.): 42.8 ± 0.3% | Purity (%) at day 21 (60° C.) (pH 5.0, day 21, 60° C.): 1.9 ± 0.2% | Purity(%) at day 0 (pH 6.0, day 0): 98.5 ± 0.4% | Purity(%) at day 21 (5° C.) (pH 6.0, day 21, 5° C.): 95.3 ± 0.3% | Purity(%) at day 21 (25° C.) (pH 6.0, day 21, 25° C.): 87.8 ± 0.2% | Purity(%) at day 21 (40° C.) (pH 6.0, day 21, 40° C.): 27.6 ± 0.2% | Purity (%) at day 21 (60° C.) (pH 6.0, day 21, 60° C.): 0% | Purity(%) at day 0 (pH 7.0, day 0): 98.4 ± 0.3% | Purity(%) at day 21 (5° C.) (pH 7.0, day 21, 5° C.): 90.2 ± 0.3% | Purity(%) at day 21 (25° C.) (pH 7.0, day 21, 25° C.): 59.9 ± 0.3% | Purity(%) at day 21 (40° C.) (pH 7.0, day 21, 40° C.): 11.4 ± 0.4% | Purity (%) at day 21 (60° C.) (pH 7.0, day 21, 60° C.): 0% | Purity(%) at day 0 (pH 8.0, day 0): 98.0 ± 0.5% | Purity(%) at day 21 (5° C.) (pH 8.0, day 21, 5° C.): 79.3 ± 0.4% | Purity(%) at day 21 (25° C.) (pH 8.0, day 21, 25° C.): 47.6 ± 0.3% | Purity(%) at day 21 (40° C.) (pH 8.0, day 21, 40° C.): 0% | Purity (%) at day 21 (60° C.) (pH 8.0, day 21, 60° C.): 0%

Source: patent US20230157952A1, “METHOD FOR IMPROVING THE STABILITY OF A PHARMACEUTICAL COMPOSITION COMPRISING A HIGH PENETRATION DRUG, AND THE PHARMACEUTICAL COMPOSITION OBTAINED THEREFROM” (Techfields Inc., priority 2020, published 2023)
